Assays:
blackgrass [1] = experiment: Test C postemergence; type: in vivo, Alopecurus myosuroides; details: Alopecurus myosuroides, post-emergence
Procedure, shortened: (§1)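 Whole-plant greenhouse test with surfactant-containing solvent formulation, applied preemergence to sown loam–sand pots or postemergence to 2–18 cm plants. Scored by eye 13 to 15 days on, 0–100 scale.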

giant foxtail = experiment: Test A preemergence; type: in vivo, Setaria faberii; details: Setaria faberi, pre-emergence, 240 h
Procedure, shortened: (§2)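 Injury scores run from 0, no effect, to 100, complete control, judged by eye against untreated plants roughly 10 days after treatment. Chemicals carried a surfactant in a non-phytotoxic solvent and went onto loam–sand soil preemergence or onto one- to two-leaf seedlings postemergence.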

blackgrass [2] = experiment: Test C preemergence; type: in vivo, Alopecurus myosuroides; details: Alopecurus myosuroides, pre-emergence
Procedure, shortened: as §1

barnyardgrass [3] = experiment: Test A preemergence; type: in vivo, Echinochloa crus-galli; details: Echinochloa crus-galli, pre-emergence, 240 h
Procedure, shortened: as §2

oilseed rape = experiment: Test C preemergence; type: in vivo, Brassica napus; details: Brassica napus, pre-emergence
Procedure, shortened: as §1

barnyardgrass [4] = experiment: Test C postemergence; type: in vivo, Echinochloa crus-galli; details: Echinochloa crus-galli, post-emergence
Procedure, shortened: as §1

pigweed = experiment: Test C postemergence; type: in vivo, Amaranthus retroflexus; details: Amaranthus retroflexus, post-emergence
Procedure, shortened: as §1

soybean = experiment: Test C preemergence; type: in vivo, Glycine max; details: Glycine max, pre-emergence
Procedure, shortened: as §1

corn [5] = experiment: Test C postemergence; type: in vivo, Zea mays; details: Zea mays, post-emergence
Procedure, shortened: as §1

velvetleaf = experiment: Test A preemergence; type: in vivo, Abutilon theophrasti
Procedure, shortened: as §2

barnyardgrass [6] = experiment: Test C preemergence; type: in vivo, Echinochloa crus-galli; details: Echinochloa crus-galli, pre-emergence
Procedure, shortened: as §1

Italian ryegrass = experiment: Test C postemergence; type: in vivo, Lolium multiflorum; details: Lolium multiflorum, post-emergence
Procedure, shortened: as §1

waterhemp [7] = experiment: Test C preemergence; type: in vivo, Amaranthus rudis; details: Amaranthus tuberculatus, pre-emergence
Procedure, shortened: as §1

morningglory = experiment: Test C preemergence; type: in vivo, Ipomoea coccinea; details: Ipomoea, pre-emergence
Procedure, shortened: as §1

ragweed = experiment: Test C preemergence; type: in vivo, Ambrosia elatior; details: Ambrosia artemisiifolia, pre-emergence
Procedure, shortened: as §1

lambsquarters = experiment: Test C postemergence; type: in vivo, Chenopodium album; details: Chenopodium album, post-emergence
Procedure, shortened: as §1

corn [8] = experiment: Test C preemergence; type: in vivo, Zea mays; details: Zea mays, pre-emergence, preemergence, scale 0 (no effect) to 100 (complete control), read-out: Corn plant response rating
Procedure, shortened: as §1

waterhemp [9] = experiment: Test C postemergence; type: in vivo, Amaranthus rudis; details: Amaranthus tuberculatus, post-emergence
Procedure, shortened: as §1

N#Cc1cccc(Oc2ncc(Br)cn2)c1-n1cc(C(F)(F)F)cn1 [Compound 59, 3-[(5-bromo-2-pyrimidinyl)oxy]-2-[4-(trifluoromethyl)-1H-pyrazol-1-yl]benzonitrile]
100%: pest or weed control at 125 g/ha (giant foxtail; 125 g ai/ha, 0 to 100 scale where 0 is no effect and 100 is complete control, read-out: Plant response rating, Foxtail, Giant) | pest or weed control at 500 g/ha (giant foxtail; 500 g ai/ha, 0 to 100 scale, 0 no effect, 100 complete control, approx. 10 days, read-out: Foxtail, Giant plant response rating) | pest or weed control at 500 g/ha (barnyardgrass [3]; 500 g ai/ha, 0 to 100 scale, 0 no effect, 100 complete control, approx. 10 days, read-out: Barnyardgrass plant response rating) | plant injury at 62 g/ha (oilseed rape; 62 g ai/ha, preemergence, scale 0 (no effect) to 100 (complete control), read-out: Oilseed Rape plant response rating) | plant injury at 125 g/ha (oilseed rape; 125 g ai/ha, preemergence, scale 0 (no effect) to 100 (complete control), read-out: Oilseed Rape plant response rating) | plant injury at 250 g/ha (oilseed rape; 250 g ai/ha, preemergence, scale 0 (no effect) to 100 (complete control), read-out: Oilseed Rape plant response rating) | pest or weed control at 500 g/ha (velvetleaf; Abutilon theophrasti, pre-emergence, 240 h, 500 g ai/ha, 0 to 100 scale, 0 no effect, 100 complete control, approx. 10 days, read-out: Velvetleaf plant response rating) | pest or weed control at 62 g/ha (barnyardgrass [6]; 62 g ai/ha, preemergence, scale 0 (no effect) to 100 (complete control), read-out: Barnyardgrass plant response rating) | pest or weed control at 125 g/ha (barnyardgrass [6]; 125 g ai/ha, preemergence, scale 0 (no effect) to 100 (complete control), read-out: Barnyardgrass plant response rating) | pest or weed control at 250 g/ha (barnyardgrass [6]; 250 g ai/ha, preemergence, scale 0 (no effect) to 100 (complete control), read-out: Barnyardgrass plant response rating) | pest or weed control at 62 g/ha (waterhemp [7]; 62 g ai/ha, preemergence, scale 0 (no effect) to 100 (complete control), read-out: Waterhemp plant response rating) | pest or weed control at 125 g/ha (waterhemp [7]; 125 g ai/ha, preemergence, scale 0 (no effect) to 100 (complete control), read-out: Waterhemp plant response rating) | pest or weed control at 250 g/ha (waterhemp [7]; 250 g ai/ha, preemergence, scale 0 (no effect) to 100 (complete control), read-out: Waterhemp plant response rating) | pest or weed control at 31 g/ha (waterhemp [7]; Preemergence, 31 g ai/ha, scale 0 to 100, 0 no effect, 100 complete control, read-out: Plant response rating, Waterhemp) | pest or weed control at 62 g/ha (morningglory; 62 g ai/ha, preemergence, scale 0 (no effect) to 100 (complete control), read-out: Morningglory plant response rating) | pest or weed control at 125 g/ha (morningglory; 125 g ai/ha, preemergence, scale 0 (no effect) to 100 (complete control), read-out: Morningglory plant response rating) | pest or weed control at 250 g/ha (morningglory; 250 g ai/ha, preemergence, scale 0 (no effect) to 100 (complete control), read-out: Morningglory plant response rating) | pest or weed control at 125 g/ha (ragweed; 125 g ai/ha, preemergence, scale 0 (no effect) to 100 (complete control), read-out: Ragweed plant response rating) | pest or weed control at 250 g/ha (ragweed; 250 g ai/ha, preemergence, scale 0 (no effect) to 100 (complete control), read-out: Ragweed plant response rating)
98%: pest or weed control at 250 g/ha (pigweed; 250 g ai/ha, postemergence, read-out: Plant response rating (0 to 100), Pigweed) | pest or weed control at 250 g/ha (waterhemp [9]; 250 g ai/ha, postemergence, read-out: Plant response rating (0 to 100), Waterhemp)
90%: pest or weed control at 125 g/ha (blackgrass [2]; 125 g ai/ha, preemergence, scale 0 (no effect) to 100 (complete control), read-out: Blackgrass plant response rating) | pest or weed control at 250 g/ha (blackgrass [2]; 250 g ai/ha, preemergence, scale 0 (no effect) to 100 (complete control), read-out: Blackgrass plant response rating) | plant injury at 31 g/ha (oilseed rape; Preemergence, 31 g ai/ha, scale 0 to 100, 0 no effect, 100 complete control, read-out: Plant response rating, Oilseed Rape) | pest or weed control at 62 g/ha (pigweed; Postemergence, 62 g ai/ha, scale 0 to 100 (0 no effect, 100 complete control), read-out: Plant response rating, Pigweed) | plant injury at 62 g/ha (soybean; 62 g ai/ha, preemergence, scale 0 (no effect) to 100 (complete control), read-out: Soybean plant response rating) | plant injury at 125 g/ha (soybean; 125 g ai/ha, preemergence, scale 0 (no effect) to 100 (complete control), read-out: Soybean plant response rating) | pest or weed control at 31 g/ha (ragweed; Preemergence, 31 g ai/ha, scale 0 to 100, 0 no effect, 100 complete control, read-out: Plant response rating, Ragweed) | pest or weed control at 125 g/ha (lambsquarters; 125 g ai/ha, postemergence, read-out: Plant response rating (0 to 100), Lambsquarters) | pest or weed control at 250 g/ha (lambsquarters; 250 g ai/ha, postemergence, read-out: Plant response rating (0 to 100), Lambsquarters) | plant injury at 250 g/ha (corn [8]; 250 g ai/ha) | pest or weed control at 125 g/ha (waterhemp [9]; 125 g ai/ha, postemergence, read-out: Plant response rating (0 to 100), Waterhemp)
5%: pest or weed control at 31 g/ha (blackgrass [1]; Postemergence, 31 g ai/ha, scale 0 to 100 (0 no effect, 100 complete control), 13 to 15 days, read-out: Plant response rating, Blackgrass) | pest or weed control at 31 g/ha (blackgrass [2]; Preemergence, 31 g ai/ha, scale 0 to 100, 0 no effect, 100 complete control, read-out: Plant response rating, Blackgrass) | pest or weed control at 31 g/ha (barnyardgrass [4]; Postemergence, 31 g ai/ha, scale 0 to 100 (0 no effect, 100 complete control), 13 to 15 days, read-out: Plant response rating, Barnyardgrass) | pest or weed control at 62 g/ha (barnyardgrass [4]; Postemergence, 62 g ai/ha, scale 0 to 100 (0 no effect, 100 complete control), read-out: Plant response rating, Barnyardgrass) | pest or weed control at 31 g/ha (Italian ryegrass; Postemergence, 31 g ai/ha, scale 0 to 100 (0 no effect, 100 complete control), 13 to 15 days, read-out: Plant response rating, Ryegrass, Italian)
75%: plant injury at 125 g/ha (corn [8]; 125 g ai/ha)
70%: pest or weed control at 31 g/ha (lambsquarters; Postemergence, 31 g ai/ha, scale 0 to 100 (0 no effect, 100 complete control), 13 to 15 days, read-out: Plant response rating, Lambsquarters)
95%: pest or weed control at 125 g/ha (pigweed; 125 g ai/ha, postemergence, read-out: Plant response rating (0 to 100), Pigweed) | plant injury at 250 g/ha (soybean; 250 g ai/ha, preemergence, scale 0 (no effect) to 100 (complete control), read-out: Soybean plant response rating) | pest or weed control at 31 g/ha (morningglory; Preemergence, 31 g ai/ha, scale 0 to 100, 0 no effect, 100 complete control, read-out: Plant response rating, Morningglory) | pest or weed control at 62 g/ha (ragweed; 62 g ai/ha, preemergence, scale 0 (no effect) to 100 (complete control), read-out: Ragweed plant response rating)
25%: pest or weed control at 125 g/ha (blackgrass [1]; 125 g ai/ha, postemergence, read-out: Plant response rating (0 to 100), Blackgrass) | pest or weed control at 250 g/ha (barnyardgrass [4]; 250 g ai/ha, postemergence, read-out: Plant response rating (0 to 100), Barnyardgrass)
80%: pest or weed control at 125 g/ha (barnyardgrass [3]; 125 g ai/ha, 0 to 100 scale where 0 is no effect and 100 is complete control, read-out: Plant response rating, Barnyardgrass) | pest or weed control at 31 g/ha (pigweed; Postemergence, 31 g ai/ha, scale 0 to 100 (0 no effect, 100 complete control), 13 to 15 days, read-out: Plant response rating, Pigweed) | pest or weed control at 31 g/ha (barnyardgrass [6]; Preemergence, 31 g ai/ha, scale 0 to 100, 0 no effect, 100 complete control, read-out: Plant response rating, Barnyardgrass) | pest or weed control at 62 g/ha (lambsquarters; Postemergence, 62 g ai/ha, scale 0 to 100 (0 no effect, 100 complete control), read-out: Plant response rating, Lambsquarters)
85%: pest or weed control at 62 g/ha (blackgrass [2]; 62 g ai/ha, preemergence, scale 0 (no effect) to 100 (complete control), read-out: Blackgrass plant response rating) | plant injury at 31 g/ha (soybean; Preemergence, 31 g ai/ha, scale 0 to 100, 0 no effect, 100 complete control, read-out: Plant response rating, Soybean) | pest or weed control at 31 g/ha (waterhemp [9]; Postemergence, 31 g ai/ha, scale 0 to 100 (0 no effect, 100 complete control), 13 to 15 days, read-out: Plant response rating, Waterhemp) | pest or weed control at 62 g/ha (waterhemp [9]; Postemergence, 62 g ai/ha, scale 0 to 100 (0 no effect, 100 complete control), read-out: Plant response rating, Waterhemp)
40%: pest or weed control at 250 g/ha (blackgrass [1]; 250 g ai/ha, postemergence, read-out: Plant response rating (0 to 100), Blackgrass)
55%: plant injury at 62 g/ha (corn [8]; 62 g ai/ha)
15%: plant injury at 125 g/ha (corn [5]; 125 g ai/ha, postemergence, read-out: Plant response rating (0 to 100), Corn) | Corn plant response rating (crop injury, 0 = no effect, 100 = complete kill) at 62 g/ha (corn [5]; Postemergence, 62 g ai/ha, scale 0 to 100 (0 no effect, 100 complete control))
30%: pest or weed control at 250 g/ha (Italian ryegrass; 250 g ai/ha, postemergence, read-out: Plant response rating (0 to 100), Ryegrass, Italian)
10%: pest or weed control at 62 g/ha (blackgrass [1]; Postemergence, 62 g ai/ha, scale 0 to 100 (0 no effect, 100 complete control), read-out: Plant response rating, Blackgrass) | pest or weed control at 125 g/ha (barnyardgrass [4]; 125 g ai/ha, postemergence, read-out: Plant response rating (0 to 100), Barnyardgrass) | Corn plant response rating (crop injury, 0 = no effect, 100 = complete kill) at 31 g/ha (corn [5]; Postemergence, 31 g ai/ha, scale 0 to 100 (0 no effect, 100 complete control), 13 to 15 days) | pest or weed control at 125 g/ha (Italian ryegrass; 125 g ai/ha, postemergence, read-out: Plant response rating (0 to 100), Ryegrass, Italian) | pest or weed control at 62 g/ha (Italian ryegrass; Postemergence, 62 g ai/ha, scale 0 to 100 (0 no effect, 100 complete control), read-out: Plant response rating, Ryegrass, Italian)
100: Plant response rating, Velvetleaf (velvetleaf; 125 g ai/ha, 0 to 100 scale where 0 is no effect and 100 is complete control)
20%: plant injury at 250 g/ha (corn [5]; 250 g ai/ha, postemergence, read-out: Plant response rating (0 to 100), Corn)

Reference: US9695155B2, “Herbicidal substituted pyrimidinyloxy benzene compounds” (E. I. DU PONT DE NEMOURS AND COMPANY, priority 2013, dated 2017)
